Key:
[1] = Photostabilization of Avobenzone in formulation, thin films between glass slides under UV-B light, loss in absorption; assay type: physicochemical
Description: Photostabilization of Avobenzone (in formulation) was performed using thin films (about 50-100μ thick, transmission signals in the non-absorbing regions must be above 85%) of formulated materials placed between two glass slides and then irradiated under UV-B light (Q-U-V Accelerated Weather Tester, The Q Panel Company). Photodegradation of Avobenzone was calculated from the relative loss in absorption of Avobenzone in formulated products before and after irradiation. 1 hour irradiation under UV-B light is equal to about 1.4 MED (minimal erythemal dose). A Beckman Coulter DU-640 spectrophotometer at a scan speed of 120 nm/min was used for this study. All spectra were recorded from 200 to 600 nm.

[2] = In vitro critical wavelength and SPF; details: Avobenzone (2%) in the presence of HMS (6%) and Oxynex ST (2%)
Description: The target SPF range can be achieved with a combination of both inorganic and organic chromophoric compounds. SPF is determined by techniques well known in the art, on human skin as described in the Federal Register, Aug. 25, 1978, Vol. 43, No. 166, pages 38259-38269 (Sunscreen Drug Products for Over-The-Counter Human Use, Food and Drug Administration). SPF values can also be approximated using in-vitro models as described, for example, in J. Soc. Cosmet. Chem. 44:127-133 (May/June 1989).

[3] = Solubility of Avobenzone in Oxynex ST + HMS on storage; assay type: physicochemical; parameters: key: Ppt = precipitate
Description: The solubility of Avobenzone was tested in various ratios of Oxynex® ST and HMS.

[4] = Solubility of Avobenzone in Oxynex ST + OMC on storage; assay type: physicochemical; parameters: key: Ppt = precipitate
[5] = Diphenylpicryl Hydrazide (DPPH) antioxidant test; assay type: biochemical; details: DPPH test method
Description: Di-2-ethylhexyl-3,5-dimethoxy-4-hydroxy-benzalmalonate is a yellow viscous liquid having a λmax at 332 nm (MeOH, εmax 18,600 cm^−1 mol^−1) or 337 nm (EtOH:H2O/70:30, εmax 19,840 cm^−1 mol^−1).
A DPPH concentrate (2.5×) of 25 mg of 1,1-Diphenyl-2-Picyrl-Hydrazyl ACS#1898-66-4 (Sigma #D-9132, lot 99H3601) dissolved in 250 mL ethanol (USP), is prepared fresh on the measurement date. A DPPH working solution is then prepared by diluting 100 mL of this concentrate to a final volume of 250 mL (100 μM/mL). A blank 13×100 mm borosilicate glass screw top tube of ethanol (USP) is used to zero the spectrometer (Milton Roy, Spectronic 20+) at 517 nm and a control tube of DPPH working solution is measured under identical conditions, and taken as 0% activity. […] After 20 minutes, the absorbance of each sample is read at 517 nm.
The percent reducing activity (% RA) is calculated using the following equation: […]
Where A(0) is the absorbance value of the DPPH working solution at 517 nm zeroed against an ethanol blank and A(20) is the absorbance at 517 nm, 20 minutes after combining the antioxidant with the DPPH working solution.
The concentration of antioxidant (mg/ml) in the final assay mixture is calculated based on the dilution of respective aliquots of each compound in the final assay volume and % RA tabulated and plotted as percent activity at each concentration in the dilution series: […]

COc1ccc(C(=O)CC(=O)c2ccc(C(C)(C)C)cc2)cc1 [Avobenzone, 4-(tert-butyl)-4′-methoxydibenzoylmethane]
24%: Avobenzone stability [1]
Few: Solubility of Avobenzone in the Oxynex ® ST Photostabilizer + OMC ([4]; Avobenzone/Oxynex ST/OMC 30/20/50, storage 4° C., 48 hr) | Solubility of Avobenzone in the Oxynex ® ST Photostabilizer + OMC ([4]; Avobenzone/Oxynex ST/OMC 30/20/50, storage RT, 48 hr)
appropriate: critical wavelength [2]
Clear: Solubility of Avobenzone in the Oxynex ® ST Photostabilizer + HMS ([3]; Avobenzone/Oxynex ST/HMS 15/15/70, storage 4° C., 1 week) | Solubility of Avobenzone in the Oxynex ® ST Photostabilizer + HMS ([3]; Avobenzone/Oxynex ST/HMS 15/15/70, storage 4° C., 24 hr) | Solubility of Avobenzone in the Oxynex ® ST Photostabilizer + HMS ([3]; Avobenzone/Oxynex ST/HMS 15/15/70, storage RT, 1 week) | Solubility of Avobenzone in the Oxynex ® ST Photostabilizer + HMS ([3]; Avobenzone/Oxynex ST/HMS 15/15/70, storage RT, 2 weeks) | Solubility of Avobenzone in the Oxynex ® ST Photostabilizer + HMS ([3]; Avobenzone/Oxynex ST/HMS 15/15/70, storage RT, 3 weeks) | Solubility of Avobenzone in the Oxynex ® ST Photostabilizer + HMS ([3]; Avobenzone/Oxynex ST/HMS 15/15/70, storage RT, 6 weeks) | Solubility of Avobenzone in the Oxynex ® ST Photostabilizer + HMS ([3]; Avobenzone/Oxynex ST/HMS 15/15/70, storage RT, 24 hr) | Solubility of Avobenzone in the Oxynex ® ST Photostabilizer + HMS ([3]; Avobenzone/Oxynex ST/HMS 20/20/60, storage 4° C., 1 week) | Solubility of Avobenzone in the Oxynex ® ST Photostabilizer + HMS ([3]; Avobenzone/Oxynex ST/HMS 20/20/60, storage 4° C., 24 hr) | Solubility of Avobenzone in the Oxynex ® ST Photostabilizer + HMS ([3]; Avobenzone/Oxynex ST/HMS 20/20/60, storage RT, 1 week) | Solubility of Avobenzone in the Oxynex ® ST Photostabilizer + HMS ([3]; Avobenzone/Oxynex ST/HMS 20/20/60, storage RT, 2 weeks) | Solubility of Avobenzone in the Oxynex ® ST Photostabilizer + HMS ([3]; Avobenzone/Oxynex ST/HMS 20/20/60, storage RT, 3 weeks) | Solubility of Avobenzone in the Oxynex ® ST Photostabilizer + HMS ([3]; Avobenzone/Oxynex ST/HMS 20/20/60, storage RT, 6 weeks) | Solubility of Avobenzone in the Oxynex ® ST Photostabilizer + HMS ([3]; Avobenzone/Oxynex ST/HMS 20/20/60, storage RT, 24 hr) | Solubility of Avobenzone in the Oxynex ® ST Photostabilizer + HMS ([3]; Avobenzone/Oxynex ST/HMS 25/25/50, storage 4° C., 24 hr) | Solubility of Avobenzone in the Oxynex ® ST Photostabilizer + HMS ([3]; Avobenzone/Oxynex ST/HMS 25/25/50, storage RT, 1 week) | Solubility of Avobenzone in the Oxynex ® ST Photostabilizer + HMS ([3]; Avobenzone/Oxynex ST/HMS 25/25/50, storage RT, 24 hr) | Solubility of Avobenzone in the Oxynex ® ST Photostabilizer + HMS ([3]; Avobenzone/Oxynex ST/HMS 30/30/40, storage 4° C., 24 hr) | Solubility of Avobenzone in the Oxynex ® ST Photostabilizer + HMS ([3]; Avobenzone/Oxynex ST/HMS 30/30/40, storage RT, 24 hr) | Solubility of Avobenzone in the Oxynex ® ST Photostabilizer + OMC ([4]; Avobenzone/Oxynex ST/OMC 20/20/60, storage 4° C., 1 week) | Solubility of Avobenzone in the Oxynex ® ST Photostabilizer + OMC ([4]; Avobenzone/Oxynex ST/OMC 20/20/60, storage 4° C., 48 hr) | Solubility of Avobenzone in the Oxynex ® ST Photostabilizer + OMC ([4]; Avobenzone/Oxynex ST/OMC 20/20/60, storage RT, 1 week) | Solubility of Avobenzone in the Oxynex ® ST Photostabilizer + OMC ([4]; Avobenzone/Oxynex ST/OMC 20/20/60, storage RT, 2 weeks) | Solubility of Avobenzone in the Oxynex ® ST Photostabilizer + OMC ([4]; Avobenzone/Oxynex ST/OMC 20/20/60, storage RT, 48 hr) | Solubility of Avobenzone in the Oxynex ® ST Photostabilizer + OMC ([4]; Avobenzone/Oxynex ST/OMC 25/25/50, storage 4° C., 48 hr) | Solubility of Avobenzone in the Oxynex ® ST Photostabilizer + OMC ([4]; Avobenzone/Oxynex ST/OMC 25/25/50, storage RT, 1 week) | Solubility of Avobenzone in the Oxynex ® ST Photostabilizer + OMC ([4]; Avobenzone/Oxynex ST/OMC 25/25/50, storage RT, 48 hr)
Crystal?: Solubility of Avobenzone in the Oxynex ® ST Photostabilizer + HMS ([3]; Avobenzone/Oxynex ST/HMS 15/15/70, storage 4° C., 2 weeks) | Solubility of Avobenzone in the Oxynex ® ST Photostabilizer + HMS ([3]; Avobenzone/Oxynex ST/HMS 15/15/70, storage 4° C., 3 weeks) | Solubility of Avobenzone in the Oxynex ® ST Photostabilizer + HMS ([3]; Avobenzone/Oxynex ST/HMS 20/20/60, storage 4° C., 2 weeks) | Solubility of Avobenzone in the Oxynex ® ST Photostabilizer + HMS ([3]; Avobenzone/Oxynex ST/HMS 20/20/60, storage 4° C., 3 weeks) | Solubility of Avobenzone in the Oxynex ® ST Photostabilizer + HMS ([3]; Avobenzone/Oxynex ST/HMS 25/25/50, storage RT, 2 weeks) | Solubility of Avobenzone in the Oxynex ® ST Photostabilizer + OMC ([4]; Avobenzone/Oxynex ST/OMC 20/20/60, storage 4° C., 2 weeks) | Solubility of Avobenzone in the Oxynex ® ST Photostabilizer + OMC ([4]; Avobenzone/Oxynex ST/OMC 25/25/50, storage RT, 2 weeks)
> 30: SPF [2]
Ppt: Solubility of Avobenzone in the Oxynex ® ST Photostabilizer + HMS ([3]; Avobenzone/Oxynex ST/HMS 15/15/70, storage 4° C., 6 weeks) | Solubility of Avobenzone in the Oxynex ® ST Photostabilizer + HMS ([3]; Avobenzone/Oxynex ST/HMS 20/20/60, storage 4° C., 6 weeks) | Solubility of Avobenzone in the Oxynex ® ST Photostabilizer + HMS ([3]; Avobenzone/Oxynex ST/HMS 25/25/50, storage 4° C., 1 week) | Solubility of Avobenzone in the Oxynex ® ST Photostabilizer + HMS ([3]; Avobenzone/Oxynex ST/HMS 25/25/50, storage 4° C., 2 weeks) | Solubility of Avobenzone in the Oxynex ® ST Photostabilizer + HMS ([3]; Avobenzone/Oxynex ST/HMS 25/25/50, storage 4° C., 3 weeks) | Solubility of Avobenzone in the Oxynex ® ST Photostabilizer + HMS ([3]; Avobenzone/Oxynex ST/HMS 25/25/50, storage 4° C., 6 weeks) | Solubility of Avobenzone in the Oxynex ® ST Photostabilizer + HMS ([3]; Avobenzone/Oxynex ST/HMS 25/25/50, storage RT, 3 weeks) | Solubility of Avobenzone in the Oxynex ® ST Photostabilizer + HMS ([3]; Avobenzone/Oxynex ST/HMS 25/25/50, storage RT, 6 weeks) | Solubility of Avobenzone in the Oxynex ® ST Photostabilizer + HMS ([3]; Avobenzone/Oxynex ST/HMS 30/30/40, storage 4° C., 1 week) | Solubility of Avobenzone in the Oxynex ® ST Photostabilizer + HMS ([3]; Avobenzone/Oxynex ST/HMS 30/30/40, storage 4° C., 2 weeks) | Solubility of Avobenzone in the Oxynex ® ST Photostabilizer + HMS ([3]; Avobenzone/Oxynex ST/HMS 30/30/40, storage 4° C., 3 weeks) | Solubility of Avobenzone in the Oxynex ® ST Photostabilizer + HMS ([3]; Avobenzone/Oxynex ST/HMS 30/30/40, storage 4° C., 6 weeks) | Solubility of Avobenzone in the Oxynex ® ST Photostabilizer + HMS ([3]; Avobenzone/Oxynex ST/HMS 30/30/40, storage RT, 1 week) | Solubility of Avobenzone in the Oxynex ® ST Photostabilizer + HMS ([3]; Avobenzone/Oxynex ST/HMS 30/30/40, storage RT, 2 weeks) | Solubility of Avobenzone in the Oxynex ® ST Photostabilizer + HMS ([3]; Avobenzone/Oxynex ST/HMS 30/30/40, storage RT, 3 weeks) | Solubility of Avobenzone in the Oxynex ® ST Photostabilizer + HMS ([3]; Avobenzone/Oxynex ST/HMS 30/30/40, storage RT, 6 weeks) | Solubility of Avobenzone in the Oxynex ® ST Photostabilizer + OMC ([4]; Avobenzone/Oxynex ST/OMC 25/25/50, storage 4° C., 1 week) | Solubility of Avobenzone in the Oxynex ® ST Photostabilizer + OMC ([4]; Avobenzone/Oxynex ST/OMC 25/25/50, storage 4° C., 2 weeks)

CCCCC(CC)COC(=O)C(=Cc1cc(OC)c(O)c(OC)c1)C(=O)OCC(CC)CCCC (stereo not drawn) [Oxynex ST, Di-(2-Ethylhexyl)-3,5-dimethoxy-4-hydroxy benzylidene malonate]
85 ± 8 µg/mL: antioxidant activity (IC50) [5]

CCCCC(CC)COC(=O)c1ccc2cc(C(=O)OCC(CC)CCCC)ccc2c1 (stereo not drawn) [TQ, Di-2-ethylhexyl-napthylate]
failed to stabilize: stabilization of Avobenzone ([1]; combined with Homosalate, ratio (w/w) 2:6:2)
practically no effect: effect on the photostabilization of Avobenzone ([1]; photostabilizer used alone)

From patent publication US8003082B2, “Photostable organic sunscreen composition” (Merck Patent GmbH, priority 2003, dated 2011)
